From ChEMBL document CHEMBL1201862, “PubChem BioAssay data set” (2004)
The source made the active and inactive calls.

Key:
Cryptococcus neoformans = experiment: PubChem AID 686997; assay type: functional, organism-based
[1] = target: G-protein coupled receptor 55 (Homo sapiens, UniProt Q9Y2T6); experiment: inhibition of LPI-stimulated GPR55 beta-arrestin translocation – imaging, U2OS, beta-arrestin-GFP, LPI agonist, primary screen (AID 2013); assay type: functional;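 note: antagonist potency measured as reduced agonist-driven arrestin aggregation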
Chain of G-protein coupled receptor 55 (Q9Y2T6 whole entry): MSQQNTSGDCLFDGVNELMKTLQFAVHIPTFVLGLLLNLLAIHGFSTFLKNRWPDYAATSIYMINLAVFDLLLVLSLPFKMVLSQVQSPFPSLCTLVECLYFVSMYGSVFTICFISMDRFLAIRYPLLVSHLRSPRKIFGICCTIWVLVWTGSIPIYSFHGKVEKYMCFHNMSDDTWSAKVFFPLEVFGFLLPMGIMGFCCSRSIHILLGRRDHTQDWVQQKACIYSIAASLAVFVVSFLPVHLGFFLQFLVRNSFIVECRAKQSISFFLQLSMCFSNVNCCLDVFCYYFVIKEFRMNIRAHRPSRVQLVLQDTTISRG

BJ [2] = experiment: BJ-TERT-LT-ST fibroblast viability loss – cell-based, RAS-independent, luminescence, dose response (AID 1935); assay type: functional; conditions: Homo sapiens;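 note: BJ fibroblasts immortalized with TERT plus LT and ST oncogenes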
BJ [3] = experiment: cells; assay type: functional, cell-based; conditions: Homo sapiens
[4] = target: Glutathione S-transferase omega-1 (Homo sapiens, UniProt P78417); experiment: IC50 of human GSTO1 inhibition by gel ABPP – biochemical, SE-Rh probe, in-gel fluorescence, powder samples, late-stage follow-up (AID 463081); assay type: functional
Chain of Glutathione S-transferase omega-1 (P78417 whole entry): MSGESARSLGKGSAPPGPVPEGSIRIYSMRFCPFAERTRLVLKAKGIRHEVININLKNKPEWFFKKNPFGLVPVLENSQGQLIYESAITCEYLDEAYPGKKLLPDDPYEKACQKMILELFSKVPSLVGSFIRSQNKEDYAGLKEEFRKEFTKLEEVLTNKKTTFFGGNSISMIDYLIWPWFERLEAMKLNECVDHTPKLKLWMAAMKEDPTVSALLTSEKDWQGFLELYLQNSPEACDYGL

[5] = target: T1, Replicative DNA helicase DnaB (Mycobacterium tuberculosis, UniProt P9WMR3); experiment: DnaB intein splicing inhibitors, dose response, biochemical, cell-free fluorescence (AID 449749); assay type: functional
T1 sequence (P9WMR3 whole entry): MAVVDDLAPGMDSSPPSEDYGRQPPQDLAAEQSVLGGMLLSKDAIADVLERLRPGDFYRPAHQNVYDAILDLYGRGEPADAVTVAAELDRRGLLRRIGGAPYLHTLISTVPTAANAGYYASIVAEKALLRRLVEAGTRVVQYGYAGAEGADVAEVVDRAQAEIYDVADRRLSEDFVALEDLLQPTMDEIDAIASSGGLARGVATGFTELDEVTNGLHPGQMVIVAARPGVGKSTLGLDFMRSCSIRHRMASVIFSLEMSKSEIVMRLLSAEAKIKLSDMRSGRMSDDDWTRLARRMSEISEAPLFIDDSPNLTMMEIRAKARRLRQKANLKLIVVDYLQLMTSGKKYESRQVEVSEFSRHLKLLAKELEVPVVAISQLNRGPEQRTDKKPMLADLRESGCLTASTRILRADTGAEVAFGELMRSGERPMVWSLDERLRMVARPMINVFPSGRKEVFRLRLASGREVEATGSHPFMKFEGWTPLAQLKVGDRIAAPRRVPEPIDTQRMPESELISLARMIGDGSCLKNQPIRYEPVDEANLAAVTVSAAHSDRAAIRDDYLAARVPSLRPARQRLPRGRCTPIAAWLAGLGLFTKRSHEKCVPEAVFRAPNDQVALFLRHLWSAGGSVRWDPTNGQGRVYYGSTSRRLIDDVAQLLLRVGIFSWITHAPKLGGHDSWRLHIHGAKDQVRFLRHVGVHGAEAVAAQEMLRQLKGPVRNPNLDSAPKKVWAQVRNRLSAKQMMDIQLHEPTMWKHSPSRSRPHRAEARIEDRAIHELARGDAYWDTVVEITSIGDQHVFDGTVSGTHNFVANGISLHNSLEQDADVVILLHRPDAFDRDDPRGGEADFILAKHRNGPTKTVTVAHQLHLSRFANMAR

[6] = Intein inhibitors as potential Tuberculosis drugs, a cytotoxicity screen. [Related pubchem assays (depositor defined):AID2221, AID2223, AID434968, AID435010, AID449749, AID449750, AID489010]; assay type: functional
[7] = DRD fibroblast viability loss – cell-based, non-viral oncogenic, luminescence, dose response (AID 1934); assay type: functional; conditions: Homo sapiens
BJ [8] = experiment: BJ-TERT fibroblast viability loss – cell-based, RAS-independent, luminescence, dose response (AID 1933); assay type: functional; conditions: Homo sapiens
Protein RecA = target: T2, Protein RecA (Mycobacterium tuberculosis, UniProt P9WHJ3); experiment: Fluorescence Cell-Free Homogeneous Dose Retest to Identify Inhibitors of RecA-Intein Splicing Activity. [Related pubchem assays (depositor defined):AID2097, AID2223, AID489010, AID492950]; assay type: functional
T2 sequence (P9WHJ3 whole entry): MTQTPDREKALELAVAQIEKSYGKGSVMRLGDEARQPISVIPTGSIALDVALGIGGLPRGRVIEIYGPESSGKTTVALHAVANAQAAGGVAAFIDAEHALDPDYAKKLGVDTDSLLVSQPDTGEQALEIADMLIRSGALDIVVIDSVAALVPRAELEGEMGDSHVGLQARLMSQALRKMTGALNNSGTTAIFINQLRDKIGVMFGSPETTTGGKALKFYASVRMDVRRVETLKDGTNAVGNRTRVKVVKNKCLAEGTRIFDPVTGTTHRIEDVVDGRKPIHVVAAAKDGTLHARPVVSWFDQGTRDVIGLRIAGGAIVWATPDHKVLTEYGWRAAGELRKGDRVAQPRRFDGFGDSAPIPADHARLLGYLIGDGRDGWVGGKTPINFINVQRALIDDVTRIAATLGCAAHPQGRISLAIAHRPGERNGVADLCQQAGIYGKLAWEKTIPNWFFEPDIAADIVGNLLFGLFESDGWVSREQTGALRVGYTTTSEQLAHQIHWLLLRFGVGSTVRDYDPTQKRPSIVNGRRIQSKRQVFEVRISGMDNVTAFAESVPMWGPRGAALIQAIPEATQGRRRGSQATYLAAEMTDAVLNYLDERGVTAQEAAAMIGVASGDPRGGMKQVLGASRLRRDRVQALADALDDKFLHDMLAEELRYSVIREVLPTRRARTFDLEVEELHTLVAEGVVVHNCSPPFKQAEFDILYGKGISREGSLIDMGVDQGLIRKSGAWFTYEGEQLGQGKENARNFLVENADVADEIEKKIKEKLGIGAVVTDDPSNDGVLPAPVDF

[9] = target: T3, Microphthalmia-associated transcription factor (Homo sapiens, UniProt O75030); experiment: reducers of TRPM1 reporter luminescence, concentration series – cell-based, SK-MEL-5, cherry-picked, set 3, MITF inhibitor project, dose response (AID 493073); assay type: functional;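 note: SK-MEL-5 melanoma cells with luciferase driven by the MITF target TRPM1 promoter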
T3 sequence (O75030 whole entry): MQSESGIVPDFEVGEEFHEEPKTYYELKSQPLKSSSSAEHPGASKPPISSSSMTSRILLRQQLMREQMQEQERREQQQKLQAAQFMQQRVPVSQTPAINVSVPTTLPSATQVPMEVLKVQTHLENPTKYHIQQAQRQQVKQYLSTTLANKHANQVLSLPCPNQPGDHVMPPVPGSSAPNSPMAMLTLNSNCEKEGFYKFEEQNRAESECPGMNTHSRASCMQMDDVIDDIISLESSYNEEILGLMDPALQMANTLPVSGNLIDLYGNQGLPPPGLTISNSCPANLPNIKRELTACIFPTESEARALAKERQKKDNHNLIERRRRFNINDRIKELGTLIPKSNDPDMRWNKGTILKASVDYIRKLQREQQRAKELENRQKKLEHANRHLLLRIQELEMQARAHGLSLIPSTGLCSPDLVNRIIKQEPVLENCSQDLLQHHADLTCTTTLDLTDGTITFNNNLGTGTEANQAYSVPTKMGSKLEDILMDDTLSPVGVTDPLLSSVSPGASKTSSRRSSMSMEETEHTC

HEK293 [10] = experiment: inhibition of NOD1-driven NF-kB reporter – cell-based, luminescence, uHTS, primary screen (AID 1578); assay type: functional; conditions: Homo sapiens
[11] = target: Nucleotide-binding oligomerization domain-containing protein 2 (Homo sapiens, UniProt Q9HC29); experiment: inhibition of NOD2-driven NF-kB reporter – cell-based, luminescence, uHTS, HEK293 (AID 1566); assay type: functional
Chain of Nucleotide-binding oligomerization domain-containing protein 2 (Q9HC29 whole entry, the tested form may be a part): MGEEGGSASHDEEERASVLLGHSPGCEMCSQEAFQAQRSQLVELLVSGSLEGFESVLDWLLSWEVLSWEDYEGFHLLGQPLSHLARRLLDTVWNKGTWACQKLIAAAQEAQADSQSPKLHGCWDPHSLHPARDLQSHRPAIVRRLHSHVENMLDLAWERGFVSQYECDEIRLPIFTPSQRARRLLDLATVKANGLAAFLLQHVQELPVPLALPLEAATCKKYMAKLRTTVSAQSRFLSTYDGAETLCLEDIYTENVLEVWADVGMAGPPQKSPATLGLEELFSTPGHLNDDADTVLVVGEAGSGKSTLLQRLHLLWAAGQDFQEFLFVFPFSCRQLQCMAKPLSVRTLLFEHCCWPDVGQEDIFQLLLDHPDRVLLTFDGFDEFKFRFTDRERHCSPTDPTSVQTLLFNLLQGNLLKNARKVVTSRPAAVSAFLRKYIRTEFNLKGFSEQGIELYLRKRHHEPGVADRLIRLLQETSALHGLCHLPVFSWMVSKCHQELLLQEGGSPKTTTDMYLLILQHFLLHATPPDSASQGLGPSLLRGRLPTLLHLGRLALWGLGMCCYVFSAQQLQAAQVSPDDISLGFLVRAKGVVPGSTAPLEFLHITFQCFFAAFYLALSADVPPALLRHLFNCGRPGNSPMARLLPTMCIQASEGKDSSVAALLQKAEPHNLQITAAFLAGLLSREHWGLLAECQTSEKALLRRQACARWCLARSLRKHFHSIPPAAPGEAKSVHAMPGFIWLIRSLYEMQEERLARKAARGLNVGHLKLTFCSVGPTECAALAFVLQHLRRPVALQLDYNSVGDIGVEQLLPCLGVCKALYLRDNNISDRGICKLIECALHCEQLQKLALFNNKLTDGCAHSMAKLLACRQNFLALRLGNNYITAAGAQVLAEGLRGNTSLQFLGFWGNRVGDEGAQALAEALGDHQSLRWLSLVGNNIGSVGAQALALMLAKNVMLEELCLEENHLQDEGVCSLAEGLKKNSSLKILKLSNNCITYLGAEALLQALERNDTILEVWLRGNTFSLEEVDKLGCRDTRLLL

HEK293 [12] = experiment: cells; assay type: functional, cell-based; conditions: Homo sapiens
[13] = target: T4, Nucleotide-binding oligomerization domain-containing protein 1 (Homo sapiens, UniProt Q9Y239); experiment: blockers of NOD1 pathway activity – revised, SAR follow-up (AID 2333); assay type: functional
T4 sequence (Q9Y239 whole entry): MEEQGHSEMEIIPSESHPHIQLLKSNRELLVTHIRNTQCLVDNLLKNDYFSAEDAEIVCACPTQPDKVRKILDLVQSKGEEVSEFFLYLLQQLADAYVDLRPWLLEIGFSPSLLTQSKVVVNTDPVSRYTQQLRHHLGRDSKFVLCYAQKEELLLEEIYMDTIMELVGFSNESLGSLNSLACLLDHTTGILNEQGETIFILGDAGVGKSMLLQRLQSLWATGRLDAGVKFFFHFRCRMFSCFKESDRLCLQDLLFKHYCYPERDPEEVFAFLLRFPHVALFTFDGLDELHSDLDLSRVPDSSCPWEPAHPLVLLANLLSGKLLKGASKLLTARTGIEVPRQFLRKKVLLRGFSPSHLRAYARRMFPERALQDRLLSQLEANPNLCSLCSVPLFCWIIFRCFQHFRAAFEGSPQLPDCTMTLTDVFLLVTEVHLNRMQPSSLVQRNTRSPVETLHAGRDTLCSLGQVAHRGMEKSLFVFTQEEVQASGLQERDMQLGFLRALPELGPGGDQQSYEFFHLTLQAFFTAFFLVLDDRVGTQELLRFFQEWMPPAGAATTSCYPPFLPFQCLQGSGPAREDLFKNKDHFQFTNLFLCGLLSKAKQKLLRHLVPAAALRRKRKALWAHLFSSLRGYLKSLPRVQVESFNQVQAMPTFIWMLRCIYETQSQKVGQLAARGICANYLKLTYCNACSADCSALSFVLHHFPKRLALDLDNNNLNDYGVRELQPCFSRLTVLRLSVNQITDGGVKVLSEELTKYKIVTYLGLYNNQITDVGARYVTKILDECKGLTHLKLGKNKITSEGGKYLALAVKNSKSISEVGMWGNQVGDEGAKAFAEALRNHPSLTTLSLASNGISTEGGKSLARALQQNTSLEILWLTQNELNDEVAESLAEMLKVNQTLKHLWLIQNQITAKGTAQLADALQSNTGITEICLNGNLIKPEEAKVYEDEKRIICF

HEK293 [14] = experiment: cells; assay type: functional, cell-based; conditions: Homo sapiens; remark: listed apart in the source
Tumor necrosis factor = Tumor necrosis factor (Homo sapiens, UniProt P01375); experiment: analog potency on TNFa NF-kB signaling – cell-based, revised, SAR follow-up (AID 2337); assay type: functional
Chain of Tumor necrosis factor (P01375 whole entry): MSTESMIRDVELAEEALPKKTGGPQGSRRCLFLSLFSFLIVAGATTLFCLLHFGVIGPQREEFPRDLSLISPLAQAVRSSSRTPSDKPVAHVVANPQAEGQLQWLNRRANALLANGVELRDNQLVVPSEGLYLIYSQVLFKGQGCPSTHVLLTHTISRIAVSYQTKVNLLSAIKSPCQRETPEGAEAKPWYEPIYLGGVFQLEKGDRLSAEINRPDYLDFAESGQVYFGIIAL

HEK293 [15] = experiment: cells; conditions: Homo sapiens
HEK293 [16] = experiment: NOD2 signaling inhibitors in MDP-stimulated cells, cell-based, uHTS, luminescence (AID 2001); assay type: functional; conditions: Homo sapiens
HEK293 [17] = experiment: cells; assay type: functional, cell-based; conditions: Homo sapiens; remark: listed apart in the source
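Throughout, for CC50: cells exposed to compound for 72 hours before luminescence readout.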

S=C(Nc1ccc(Cl)cc1Cl)Nc1ccccc1Oc1ccccc1
AC50 (Cryptococcus neoformans): 44.9 µM (active)
IC50 [1]: 4.08 µM (active)

O=C(NC1CCCCC1)C(c1cccnc1)N(C(=O)CCl)c1cccc(Cl)c1 (stereo not given)
EC50 (BJ [2]): 7.06 µM (inconclusive)
EC50 (BJ [3]): 5.05 µM (active)
IC50 [4]: 0.038 µM (active)
AC50 [5]: 3.23 µM (active)
CC50 [6]: 0.82 µM (active)
EC50 [7]: 2.77 µM (active)
EC50 (BJ [8]): 0.349 µM (active)
EC50 (Protein RecA): 0.467 µM (active)
AC50 [9]: 4.16 µM (active)

COc1ccc(N2CCN(C(=O)c3ccc(CNS(=O)(=O)c4ccc(C)cc4)cc3)CC2)cc1
EC50 (HEK293 [10]): 7.09 µM (active)
EC50 [11]: > 20 µM (inactive)
IC50 (HEK293 [12]): 17.5 µM (active)
IC50 [13]: > 20 µM (inactive)
IC50 (HEK293 [14]): 10.1 µM (active)
IC50 (Tumor necrosis factor): > 20 µM (inactive)
IC50 (HEK293 [15]): > 20 µM (inactive)
IC50 (HEK293 [16]): 12.5 µM (inactive)
IC50 (HEK293 [17]): > 20 µM (inactive)
